Measured values: PubChem BioAssay AID248 (DTP/NCI, 2004)
“And” between values parts separate entries of the source, which are not always exact repeats. Equal values may be shown once. Toxic doses and inconclusive results are not listed. Cut-off read from the data, not from the text of the source: active = T/C of 150% or more; inactive = T/C below 125%.

System: L1210 leukemia ip in BDF1 mice, survival T/C
Experiment: NCI In Vivo Anticancer Drug Screen. Data for tumor model L1210 Leukemia (intraperitoneal) in B6D2F1 (BDF1) mice
Conditions: endpoint: mean survival time, higher = longer survival
Procedure, shortened: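 Mice bearing the transplanted tumor received compound or vehicle. Survival of the treated group was divided by that of the vehicle-treated control group to give the ratio.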

[1] = dose: 100.0 mg/kg/injection, schedule: Q01DX009 (ip), vehicle: Klucel (hydroxypropylcellulose) (HPC)
[2] = dose: 200.0 mg/kg/injection, schedule: Q01DX009 (ip), vehicle: Klucel (hydroxypropylcellulose) (HPC)
[3] = dose: 400.0 mg/kg/injection, schedule: Q01DX009 (ip), vehicle: Klucel (hydroxypropylcellulose) (HPC)
[4] = dose: 200.0 mg/kg/injection, schedule: Q01DX001 (ip), vehicle: saline
[5] = dose: 50.0 mg/kg/injection, schedule: Q01DX001 (ip), vehicle: Klucel (hydroxypropylcellulose) (HPC)
[6] = dose: 100.0 mg/kg/injection, schedule: Q01DX001 (ip), vehicle: Klucel (hydroxypropylcellulose) (HPC)
[7] = dose: 100.0 mg/kg/injection, schedule: Q04DX003 (ip), vehicle: saline
[8] = dose: 200.0 mg/kg/injection, schedule: Q04DX003 (ip), vehicle: saline
[9] = dose: 100.0 mg/kg/injection, schedule: Q04DX003 (ip), vehicle: saline with Tween-80
[10] = dose: 200.0 mg/kg/injection, schedule: Q04DX003 (ip), vehicle: saline with Tween-80
[11] = dose: 400.0 mg/kg/injection, schedule: Q04DX003 (ip), vehicle: saline with Tween-80
[12] = dose: 100.0 mg/kg/injection, schedule: Q04DX003 (ip), vehicle: Klucel (hydroxypropylcellulose) (HPC)
[13] = dose: 200.0 mg/kg/injection, schedule: Q04DX003 (ip), vehicle: Klucel (hydroxypropylcellulose) (HPC)
[14] = dose: 400.0 mg/kg/injection, schedule: Q04DX003 (ip), vehicle: Klucel (hydroxypropylcellulose) (HPC)
[15] = dose: 400.0 mg/kg/injection, schedule: Q04DX003 (ip), vehicle: saline

Measured: T/C

O=C(O)COc1nc2ccccc2s1
inactive: [1] 95 % of control | dose: 100.0 mg/kg/injection, schedule: Q04DX003 (ip), vehicle: alcohol 105 % of control | [2] 96 % of control | dose: 200.0 mg/kg/injection, schedule: Q04DX003 (ip), vehicle: alcohol 98 % of control | [3] 88 % of control | dose: 400.0 mg/kg/injection, schedule: Q04DX003 (ip), vehicle: alcohol 94 % of control

CCCCNc1ncnc2c1cnn2C
inactive: dose: 31.25 mg/kg/injection, schedule: Q01DX010 (ip), vehicle: saline 94 % of control and 105 % of control | dose: 50.0 mg/kg/injection, schedule: Q01DX Z (ip), vehicle: saline 102 % of control | dose: 62.5 mg/kg/injection, schedule: Q01DX010 (ip), vehicle: saline 100 % of control | dose: 75.0 mg/kg/injection, schedule: Q01DX Z (ip), vehicle: saline 100 % of control | dose: 100.0 mg/kg/injection, schedule: Q01DX Z (ip), vehicle: saline 111 % of control | dose: 125.0 mg/kg/injection, schedule: Q01DX010 (ip), vehicle: saline 97 % of control and 113 % of control | [4] 98 % of control

CCCCCCCCOC(CN)C(Cl)(Cl)Cl (stereo not drawn)
inactive: dose: 6.25 mg/kg/injection, schedule: Q01DX009 (ip), vehicle: saline with Tween-80 103 % of control | dose: 6.25 mg/kg/injection, schedule: Q04DX003 (ip), vehicle: saline with Tween-80 91 % of control | dose: 12.5 mg/kg/injection, schedule: Q01DX009 (ip), vehicle: saline with Tween-80 100 % of control | dose: 12.5 mg/kg/injection, schedule: Q04DX003 (ip), vehicle: saline with Tween-80 94 % of control | dose: 25.0 mg/kg/injection, schedule: Q01DX009 (ip), vehicle: saline with Tween-80 100 % of control | dose: 25.0 mg/kg/injection, schedule: Q04DX003 (ip), vehicle: saline with Tween-80 94 % of control

O=S(N=C(C(F)(F)F)C(F)(F)F)C(F)(F)F (stereo not drawn)
inactive: [5] 92 % of control | [6] 106 % of control

C[N+](C)(C)C1/C=C(/Cl)CC/C=C(/Cl)C1 (stereo not drawn)
inactive: dose: 9.38 mg/kg/injection, schedule: Q01DX001 (ip), vehicle: saline 96 % of control | dose: 18.75 mg/kg/injection, schedule: Q01DX001 (ip), vehicle: saline 89 % of control | dose: 37.5 mg/kg/injection, schedule: Q01DX001 (ip), vehicle: saline 97 % of control

COc1ccccc1C1CCCCCC1O (stereo not drawn)
inactive: dose: 100.0 mg/kg/injection, schedule: Q01DX009 (ip), vehicle: saline 98 % of control | dose: 200.0 mg/kg/injection, schedule: Q01DX009 (ip), vehicle: saline 98 % of control | dose: 400.0 mg/kg/injection, schedule: Q01DX009 (ip), vehicle: saline 98 % of control

CCOc1ccc(N=Nc2ccc(N)cc2N)cc1
inactive: dose: 100.0 mg/kg/injection, schedule: Q04DX002 (ip), vehicle: Klucel (hydroxypropylcellulose) (HPC) 96 % of control | dose: 200.0 mg/kg/injection, schedule: Q04DX002 (ip), vehicle: Klucel (hydroxypropylcellulose) (HPC) 101 % of control | dose: 400.0 mg/kg/injection, schedule: Q04DX002 (ip), vehicle: Klucel (hydroxypropylcellulose) (HPC) 96 % of control

CC1(C)OC2C(C(N)=O)OC(n3cnc4c(N)ncnc43)C2O1 (stereo not drawn)
inactive: dose: 100.0 mg/kg/injection, schedule: Q01DX005 (ip), vehicle: saline 104 % of control | dose: 200.0 mg/kg/injection, schedule: Q01DX005 (ip), vehicle: saline 102 % of control

C/C=C/c1ccc(OCC)c(OC)c1
inactive: [7] 97 % of control | [8] 98 % of control

c1ccc(-c2nnc(-c3ccc4ccc5cccnc5c4n3)nc2-c2ccccc2)cc1
inactive: [9] 93 % of control | [10] 104 % of control | [11] 104 % of control

CCCCCCCCCCCCCCCCOc1ccc2ccccc2c1
inactive: [12] 97 % of control | [13] 102 % of control | [14] 91 % of control

Nc1nc2c(nnn2C2OC(COP(=O)(O)O)C(O)C2O)c(=O)[nH]1 (stereo not drawn)
inactive: dose: 2.5 mg/kg/injection, schedule: Q01DX Z (ip), vehicle: other 89 % of control | dose: 5.0 mg/kg/injection, schedule: Q01DX Z (ip), vehicle: other 97 % of control | dose: 10.0 mg/kg/injection, schedule: Q01DX Z (ip), vehicle: other 102 % of control | dose: 20.0 mg/kg/injection, schedule: Q01DX Z (ip), vehicle: other 118 % of control | dose: 30.0 mg/kg/injection, schedule: Q01DX Z (ip), vehicle: other 120 % of control | dose: 50.0 mg/kg/injection, schedule: Q01DX Z (ip), vehicle: other 118 % of control

N#CCCOc1ccc(Cl)cc1
inactive: [9] 96 % of control | [10] 99 % of control

COC1OC(CN2CC2)C2OC(C)(C)OC12 (stereo not drawn)
inactive: dose: 75.0 mg/kg/injection, schedule: Q01DX001 (ip), vehicle: carboxymethylcellulose (CMC) 102 % of control

C=C1C(=O)O[C@@H]2C[C@@H](C)[C@@H]3[C@@H](OC4OC(COC(C)=O)C(O)C(O)C4O)CC(=O)[C@@]3(C)C[C@H]12 (stereo partly drawn)
inactive: dose: 6.4 mg/kg/injection, schedule: Q01DX009 (ip), vehicle: saline 101 % of control | dose: 9.6 mg/kg/injection, schedule: Q01DX009 (ip), vehicle: saline 97 % of control | dose: 14.0 mg/kg/injection, schedule: Q01DX009 (ip), vehicle: saline 104 % of control | dose: 22.0 mg/kg/injection, schedule: Q01DX009 (ip), vehicle: saline 98 % of control | [9] 100 % of control | [10] 89 % of control | [11] 94 % of control

CCSCCC(=O)O
inactive: [5] 97 % of control | [6] 92 % of control | dose: 200.0 mg/kg/injection, schedule: Q01DX001 (ip), vehicle: Klucel (hydroxypropylcellulose) (HPC) 97 % of control

COc1ccc(OC(=O)N2C=Cc3ccccc3C2C#N)cc1 (stereo not drawn)
inactive: dose: 100.0 mg/kg/injection, schedule: Q01DX001 (ip), vehicle: saline 93 % of control | [7] 105 % of control | [4] 97 % of control | [8] 97 % of control | dose: 400.0 mg/kg/injection, schedule: Q01DX001 (ip), vehicle: saline 91 % of control | [15] 97 % of control

CCc1ccc(NC(=O)c2ccco2)cc1
inactive: dose: 25.0 mg/kg/injection, schedule: Q01DX009 (ip), vehicle: Klucel (hydroxypropylcellulose) (HPC) 98 % of control | dose: 50.0 mg/kg/injection, schedule: Q01DX009 (ip), vehicle: Klucel (hydroxypropylcellulose) (HPC) 96 % of control | [1] 98 % of control

O=C(n1ccnc1)C(F)(F)F
inactive: dose: 100.0 mg/kg/injection, schedule: Q01DX001 (ip), vehicle: saline sonified 105 % of control | [7] 109 % of control | dose: 200.0 mg/kg/injection, schedule: Q01DX001 (ip), vehicle: saline sonified 108 % of control | [8] 91 % of control | dose: 400.0 mg/kg/injection, schedule: Q01DX001 (ip), vehicle: saline sonified 101 % of control | [15] 97 % of control

NNCC(F)(F)C(F)(F)C(F)(F)C(F)(F)C(F)(F)C(F)(F)C(F)(F)C(F)F
inactive: dose: 100.0 mg/kg/injection, schedule: Q01DX009 (ip), vehicle: DMSO 91 % of control | dose: 100.0 mg/kg/injection, schedule: Q04DX003 (ip), vehicle: DMSO 89 % of control | dose: 200.0 mg/kg/injection, schedule: Q01DX009 (ip), vehicle: DMSO 92 % of control | dose: 200.0 mg/kg/injection, schedule: Q04DX003 (ip), vehicle: DMSO 88 % of control | dose: 400.0 mg/kg/injection, schedule: Q04DX003 (ip), vehicle: DMSO 94 % of control

Cc1ccc(S(=O)(=O)Nc2ccc([N+](=O)[O-])cc2O)cc1
inactive: [1] 97 % of control | [2] 101 % of control | [3] 94 % of control

CC(=O)Nc1cc([N+](=O)[O-])ccc1CC(O)c1ccccc1 (stereo not drawn)
inactive: [1] 109 % of control | [12] 97 % of control | [2] 111 % of control | [13] 97 % of control | [3] 94 % of control | [14] 100 % of control
